Measured values reported in ChEMBL document CHEMBL3627608, “Crystal structures of human RIP2 kinase catalytic domain complexed with ATP-competitive inhibitors: Foundations for understanding inhibitor selectivity” (Bioorg Med Chem, 2015).

Columns and labels:
[1] = target: T1, Ephrin type-B receptor 2 (Homo sapiens) (UniProt P29323); test: Inhibition of EPHB2 (unknown origin) at 10 uM after 120 mins P33 radiolabeled kinase activity assay
T1 sequence (whole entry): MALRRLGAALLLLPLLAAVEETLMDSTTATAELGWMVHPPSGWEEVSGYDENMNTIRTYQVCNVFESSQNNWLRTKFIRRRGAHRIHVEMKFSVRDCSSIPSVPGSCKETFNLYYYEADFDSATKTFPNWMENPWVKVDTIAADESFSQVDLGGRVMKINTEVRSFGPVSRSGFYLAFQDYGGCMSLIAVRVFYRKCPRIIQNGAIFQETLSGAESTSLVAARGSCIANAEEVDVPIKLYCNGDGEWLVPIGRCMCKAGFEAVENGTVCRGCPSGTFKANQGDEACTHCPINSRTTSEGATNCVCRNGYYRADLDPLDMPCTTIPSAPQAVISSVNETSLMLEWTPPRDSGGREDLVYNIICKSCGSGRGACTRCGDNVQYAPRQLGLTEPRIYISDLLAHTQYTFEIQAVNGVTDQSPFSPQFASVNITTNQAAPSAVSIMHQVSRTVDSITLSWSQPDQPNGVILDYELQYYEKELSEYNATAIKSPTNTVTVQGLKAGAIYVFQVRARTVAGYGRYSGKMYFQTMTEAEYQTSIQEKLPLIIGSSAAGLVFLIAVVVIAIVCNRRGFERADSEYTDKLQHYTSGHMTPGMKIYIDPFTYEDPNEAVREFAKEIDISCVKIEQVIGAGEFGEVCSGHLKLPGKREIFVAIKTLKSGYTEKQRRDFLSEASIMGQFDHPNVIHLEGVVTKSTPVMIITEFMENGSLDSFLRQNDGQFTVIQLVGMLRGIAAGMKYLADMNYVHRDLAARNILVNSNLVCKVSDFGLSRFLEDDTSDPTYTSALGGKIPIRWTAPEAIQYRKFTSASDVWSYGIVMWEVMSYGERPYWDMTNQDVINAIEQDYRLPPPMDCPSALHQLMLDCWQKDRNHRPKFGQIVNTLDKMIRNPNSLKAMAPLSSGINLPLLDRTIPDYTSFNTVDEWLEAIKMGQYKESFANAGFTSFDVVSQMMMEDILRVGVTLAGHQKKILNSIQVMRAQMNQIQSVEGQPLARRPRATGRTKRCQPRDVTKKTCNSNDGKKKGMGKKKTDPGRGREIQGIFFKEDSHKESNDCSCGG

[2] = target: Platelet-derived growth factor receptor beta (Homo sapiens) (UniProt P09619); test: Inhibition of PDGFRbeta (unknown origin) at 10 uM after 120 mins P33 radiolabeled kinase activity assay
[3] = target: T2, Inhibitor of nuclear factor kappa-B kinase subunit epsilon (Homo sapiens) (UniProt Q14164); test: Inhibition of IKKepsilon (unknown origin) at 10 uM after 120 mins P33 radiolabeled kinase activity assay
T2 sequence (whole entry): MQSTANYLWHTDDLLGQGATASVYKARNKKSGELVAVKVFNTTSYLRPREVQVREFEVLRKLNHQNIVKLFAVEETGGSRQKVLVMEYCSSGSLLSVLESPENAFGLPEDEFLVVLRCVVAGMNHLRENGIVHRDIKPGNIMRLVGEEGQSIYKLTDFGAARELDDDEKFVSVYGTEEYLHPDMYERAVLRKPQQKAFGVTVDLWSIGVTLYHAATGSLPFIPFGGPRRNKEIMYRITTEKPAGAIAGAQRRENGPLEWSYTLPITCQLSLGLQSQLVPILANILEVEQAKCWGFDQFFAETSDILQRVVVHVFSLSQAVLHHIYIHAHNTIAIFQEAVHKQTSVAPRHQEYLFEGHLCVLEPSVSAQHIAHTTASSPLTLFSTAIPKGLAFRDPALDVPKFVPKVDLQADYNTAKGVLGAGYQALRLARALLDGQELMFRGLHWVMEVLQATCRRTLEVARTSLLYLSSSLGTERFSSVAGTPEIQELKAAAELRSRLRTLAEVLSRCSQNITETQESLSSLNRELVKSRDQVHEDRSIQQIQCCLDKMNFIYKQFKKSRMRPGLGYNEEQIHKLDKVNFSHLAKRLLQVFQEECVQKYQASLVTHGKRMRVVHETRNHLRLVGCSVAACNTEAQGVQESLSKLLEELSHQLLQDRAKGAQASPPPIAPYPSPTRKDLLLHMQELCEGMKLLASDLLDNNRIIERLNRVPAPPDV

[4] = target: T3, Tyrosine-protein kinase ITK/TSK (Homo sapiens) (UniProt Q08881); test: Inhibition of ITK (unknown origin) at 10 uM after 120 mins P33 radiolabeled kinase activity assay
T3 sequence (whole entry): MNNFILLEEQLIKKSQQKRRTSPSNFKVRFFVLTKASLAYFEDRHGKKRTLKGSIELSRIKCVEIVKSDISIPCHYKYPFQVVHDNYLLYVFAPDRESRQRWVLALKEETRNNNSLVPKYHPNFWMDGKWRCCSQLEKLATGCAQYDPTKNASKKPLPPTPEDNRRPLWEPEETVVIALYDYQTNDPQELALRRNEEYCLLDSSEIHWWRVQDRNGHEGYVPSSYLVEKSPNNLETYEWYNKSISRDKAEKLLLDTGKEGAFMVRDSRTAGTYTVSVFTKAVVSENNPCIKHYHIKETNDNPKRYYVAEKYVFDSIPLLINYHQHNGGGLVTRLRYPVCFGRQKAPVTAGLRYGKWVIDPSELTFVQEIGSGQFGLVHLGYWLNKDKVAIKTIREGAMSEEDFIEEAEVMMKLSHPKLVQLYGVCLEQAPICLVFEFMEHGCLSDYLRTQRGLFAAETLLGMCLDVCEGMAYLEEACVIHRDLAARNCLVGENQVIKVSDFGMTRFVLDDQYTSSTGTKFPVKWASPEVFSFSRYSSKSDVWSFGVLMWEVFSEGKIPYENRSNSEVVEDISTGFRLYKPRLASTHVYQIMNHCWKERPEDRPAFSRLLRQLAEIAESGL

[5] = target: Mitogen-activated protein kinase 8 (Homo sapiens) (UniProt P45983); test: Inhibition of JNK1 (unknown origin) at 10 uM after 120 mins P33 radiolabeled kinase activity assay
[6] = target: Mitogen-activated protein kinase kinase kinase 9 (Homo sapiens) (UniProt P80192); test: Inhibition of MLK1 (unknown origin) at 10 uM after 120 mins P33 radiolabeled kinase activity assay
[7] = target: Tyrosine-protein kinase SYK (Homo sapiens) (UniProt P43405); test: Inhibition of SYK (unknown origin) at 10 uM after 120 mins P33 radiolabeled kinase activity assay
[8] = target: Tyrosine-protein kinase ABL2 (Homo sapiens) (UniProt P42684); test: Inhibition of ABL2 (unknown origin) at 10 uM after 120 mins P33 radiolabeled kinase activity assay
[9] = target: Cyclin-dependent kinase 5/CDK5 activator 1 (Homo sapiens) (UniProt Q00535+Q15078); test: Inhibition of CDK5/p35 (unknown origin) at 10 uM after 120 mins P33 radiolabeled kinase activity assay; format: protein-complex assay
[10] = target: Casein kinase I isoform gamma-2 (Homo sapiens) (UniProt P78368); test: Inhibition of CK1gamma2 (unknown origin) at 10 uM after 120 mins P33 radiolabeled kinase activity assay
Chain of Casein kinase I isoform gamma-2 (Homo sapiens) (P78368 whole entry, looked up, canonical isoform): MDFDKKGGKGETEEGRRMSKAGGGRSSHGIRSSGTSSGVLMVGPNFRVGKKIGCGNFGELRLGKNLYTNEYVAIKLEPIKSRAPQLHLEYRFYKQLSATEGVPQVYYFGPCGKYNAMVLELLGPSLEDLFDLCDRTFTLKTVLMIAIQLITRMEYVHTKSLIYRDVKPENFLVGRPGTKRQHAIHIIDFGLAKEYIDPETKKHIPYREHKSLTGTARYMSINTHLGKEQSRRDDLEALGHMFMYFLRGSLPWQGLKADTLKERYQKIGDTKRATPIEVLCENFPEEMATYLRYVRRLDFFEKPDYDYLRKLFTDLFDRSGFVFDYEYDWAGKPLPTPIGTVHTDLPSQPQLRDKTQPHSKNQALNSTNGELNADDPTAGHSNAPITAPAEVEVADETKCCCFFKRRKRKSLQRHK

Chain of Mitogen-activated protein kinase kinase kinase 9 (Homo sapiens) (P80192 whole entry, looked up): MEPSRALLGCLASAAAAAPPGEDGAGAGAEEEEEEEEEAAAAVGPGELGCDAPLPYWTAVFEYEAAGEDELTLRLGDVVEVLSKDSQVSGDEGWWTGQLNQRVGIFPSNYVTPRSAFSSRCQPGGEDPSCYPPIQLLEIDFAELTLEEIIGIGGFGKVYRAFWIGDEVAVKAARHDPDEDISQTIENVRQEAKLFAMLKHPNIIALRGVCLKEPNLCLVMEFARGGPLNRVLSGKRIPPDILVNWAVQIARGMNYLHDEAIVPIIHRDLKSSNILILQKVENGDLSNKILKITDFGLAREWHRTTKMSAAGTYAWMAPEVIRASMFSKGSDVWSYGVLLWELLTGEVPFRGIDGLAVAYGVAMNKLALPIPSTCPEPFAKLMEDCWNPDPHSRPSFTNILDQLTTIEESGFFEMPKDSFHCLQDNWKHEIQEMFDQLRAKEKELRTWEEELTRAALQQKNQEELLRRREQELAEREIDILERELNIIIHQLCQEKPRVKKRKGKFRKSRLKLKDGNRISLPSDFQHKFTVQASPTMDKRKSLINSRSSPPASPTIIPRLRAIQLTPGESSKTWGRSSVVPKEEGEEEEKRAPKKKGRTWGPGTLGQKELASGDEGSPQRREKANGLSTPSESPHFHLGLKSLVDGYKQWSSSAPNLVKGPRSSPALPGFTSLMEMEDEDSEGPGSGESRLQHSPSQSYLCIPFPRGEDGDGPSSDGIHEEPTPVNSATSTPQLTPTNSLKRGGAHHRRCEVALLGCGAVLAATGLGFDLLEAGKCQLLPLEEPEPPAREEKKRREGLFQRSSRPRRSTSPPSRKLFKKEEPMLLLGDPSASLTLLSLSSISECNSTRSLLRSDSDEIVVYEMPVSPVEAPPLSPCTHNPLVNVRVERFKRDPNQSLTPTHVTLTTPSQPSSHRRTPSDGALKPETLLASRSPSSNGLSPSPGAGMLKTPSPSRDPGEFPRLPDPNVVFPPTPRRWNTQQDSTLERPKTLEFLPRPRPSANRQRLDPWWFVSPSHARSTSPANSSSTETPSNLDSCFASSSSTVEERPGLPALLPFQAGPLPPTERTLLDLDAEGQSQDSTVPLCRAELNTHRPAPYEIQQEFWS
Chain of Platelet-derived growth factor receptor beta (Homo sapiens) (P09619 whole entry): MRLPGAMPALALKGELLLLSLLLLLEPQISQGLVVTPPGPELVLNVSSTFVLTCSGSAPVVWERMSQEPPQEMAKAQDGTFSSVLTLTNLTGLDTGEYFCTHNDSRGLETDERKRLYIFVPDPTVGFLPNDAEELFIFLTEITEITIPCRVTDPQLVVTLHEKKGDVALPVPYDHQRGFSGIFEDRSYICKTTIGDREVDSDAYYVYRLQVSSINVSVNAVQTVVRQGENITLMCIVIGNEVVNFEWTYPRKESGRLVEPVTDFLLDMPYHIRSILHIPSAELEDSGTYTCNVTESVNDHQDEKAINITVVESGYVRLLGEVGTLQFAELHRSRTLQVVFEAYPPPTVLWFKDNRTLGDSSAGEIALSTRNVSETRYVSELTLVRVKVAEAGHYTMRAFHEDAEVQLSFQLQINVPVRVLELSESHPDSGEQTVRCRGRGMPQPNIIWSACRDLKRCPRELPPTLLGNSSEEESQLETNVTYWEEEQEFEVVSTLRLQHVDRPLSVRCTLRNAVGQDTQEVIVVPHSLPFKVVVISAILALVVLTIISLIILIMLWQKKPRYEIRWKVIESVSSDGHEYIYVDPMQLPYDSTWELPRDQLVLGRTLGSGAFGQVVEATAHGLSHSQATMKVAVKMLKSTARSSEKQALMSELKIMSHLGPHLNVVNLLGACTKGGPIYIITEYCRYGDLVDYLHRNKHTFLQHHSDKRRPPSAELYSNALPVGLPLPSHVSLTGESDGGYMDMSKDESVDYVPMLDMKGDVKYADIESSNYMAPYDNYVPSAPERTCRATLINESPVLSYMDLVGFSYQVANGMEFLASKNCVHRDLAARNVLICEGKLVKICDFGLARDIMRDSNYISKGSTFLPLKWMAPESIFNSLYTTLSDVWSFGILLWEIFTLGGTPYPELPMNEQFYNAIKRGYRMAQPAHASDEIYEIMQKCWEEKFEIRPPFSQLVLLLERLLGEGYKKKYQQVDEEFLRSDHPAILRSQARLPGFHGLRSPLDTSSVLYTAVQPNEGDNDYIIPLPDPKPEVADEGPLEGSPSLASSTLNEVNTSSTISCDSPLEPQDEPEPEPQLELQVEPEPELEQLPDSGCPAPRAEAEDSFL
Chain of Cyclin-dependent kinase 5/CDK5 activator 1 (Homo sapiens) (Q00535 whole entry, canonical isoform): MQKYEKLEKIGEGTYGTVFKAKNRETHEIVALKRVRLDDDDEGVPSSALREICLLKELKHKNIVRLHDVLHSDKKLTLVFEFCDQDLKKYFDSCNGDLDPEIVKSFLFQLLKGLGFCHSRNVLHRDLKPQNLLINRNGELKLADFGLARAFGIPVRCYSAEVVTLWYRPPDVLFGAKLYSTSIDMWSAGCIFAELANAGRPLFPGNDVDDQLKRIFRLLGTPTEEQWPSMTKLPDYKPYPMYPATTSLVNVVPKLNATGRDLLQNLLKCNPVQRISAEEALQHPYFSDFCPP
Chain of Cyclin-dependent kinase 5/CDK5 activator 1 (Homo sapiens) (Q15078 99-307 partner limits assumed): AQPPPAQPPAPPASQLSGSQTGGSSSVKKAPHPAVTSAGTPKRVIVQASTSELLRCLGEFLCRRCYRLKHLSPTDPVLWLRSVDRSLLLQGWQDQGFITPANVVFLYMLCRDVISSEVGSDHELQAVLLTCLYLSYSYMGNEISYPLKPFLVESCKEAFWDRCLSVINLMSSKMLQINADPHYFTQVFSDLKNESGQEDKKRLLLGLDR
Chain of Mitogen-activated protein kinase 8 (Homo sapiens) (P45983 whole entry): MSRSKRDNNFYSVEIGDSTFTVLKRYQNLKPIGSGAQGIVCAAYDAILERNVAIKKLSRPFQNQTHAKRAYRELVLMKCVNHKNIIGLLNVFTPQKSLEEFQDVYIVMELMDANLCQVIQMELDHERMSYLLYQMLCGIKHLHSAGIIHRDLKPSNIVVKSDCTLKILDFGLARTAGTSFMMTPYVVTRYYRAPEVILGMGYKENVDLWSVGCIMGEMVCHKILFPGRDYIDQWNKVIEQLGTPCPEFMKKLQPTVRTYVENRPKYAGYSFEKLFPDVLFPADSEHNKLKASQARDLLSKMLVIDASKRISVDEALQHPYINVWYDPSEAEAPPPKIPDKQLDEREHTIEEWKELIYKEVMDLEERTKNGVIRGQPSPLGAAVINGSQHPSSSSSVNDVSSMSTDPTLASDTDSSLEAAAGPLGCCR
Chain of Tyrosine-protein kinase ABL2 (Homo sapiens) (P42684 whole entry): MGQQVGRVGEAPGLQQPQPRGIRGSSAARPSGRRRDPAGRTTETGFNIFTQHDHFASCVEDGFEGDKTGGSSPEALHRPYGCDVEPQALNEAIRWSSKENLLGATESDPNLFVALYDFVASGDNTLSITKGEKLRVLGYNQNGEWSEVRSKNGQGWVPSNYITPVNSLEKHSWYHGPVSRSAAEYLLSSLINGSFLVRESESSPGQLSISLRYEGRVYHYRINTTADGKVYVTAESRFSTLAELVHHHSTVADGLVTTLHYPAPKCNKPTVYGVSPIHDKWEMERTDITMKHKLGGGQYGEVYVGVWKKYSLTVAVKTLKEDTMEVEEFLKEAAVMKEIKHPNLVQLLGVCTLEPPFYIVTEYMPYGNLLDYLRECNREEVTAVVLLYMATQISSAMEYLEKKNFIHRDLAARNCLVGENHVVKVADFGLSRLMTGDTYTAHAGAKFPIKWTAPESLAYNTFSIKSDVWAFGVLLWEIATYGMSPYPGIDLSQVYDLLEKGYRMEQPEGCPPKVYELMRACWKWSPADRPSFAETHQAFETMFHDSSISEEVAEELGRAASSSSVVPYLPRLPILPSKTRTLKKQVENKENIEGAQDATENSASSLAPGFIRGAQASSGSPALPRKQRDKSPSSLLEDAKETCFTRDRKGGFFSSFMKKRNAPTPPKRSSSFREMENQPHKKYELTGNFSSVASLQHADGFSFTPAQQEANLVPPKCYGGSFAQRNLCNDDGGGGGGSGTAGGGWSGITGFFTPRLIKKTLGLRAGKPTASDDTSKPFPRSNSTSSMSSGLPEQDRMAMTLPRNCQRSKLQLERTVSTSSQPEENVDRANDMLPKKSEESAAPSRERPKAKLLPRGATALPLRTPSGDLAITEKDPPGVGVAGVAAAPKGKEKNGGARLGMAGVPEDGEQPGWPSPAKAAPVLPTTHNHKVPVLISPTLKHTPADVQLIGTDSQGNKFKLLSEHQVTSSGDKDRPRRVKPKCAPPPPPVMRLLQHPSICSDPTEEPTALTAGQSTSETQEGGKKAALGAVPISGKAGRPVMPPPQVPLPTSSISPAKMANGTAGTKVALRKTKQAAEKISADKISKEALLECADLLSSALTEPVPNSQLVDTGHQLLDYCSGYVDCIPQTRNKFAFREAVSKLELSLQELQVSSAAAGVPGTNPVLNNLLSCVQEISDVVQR

| inhibition [1] | inhibition [2] | inhibition [3] | inhibition [4] | inhibition [5] | inhibition [6] | inhibition [7] | inhibition [8] | inhibition [9] | inhibition [10] | Compound |
| --- | --- | --- | --- | --- | --- | --- | --- | --- | --- | --- |
| 74.9% | 91% | 67.7% | 96.8% | 31.4% | 94.4% | 21.4% | 99.8% | 94.7% | 34.5% | CS(=O)(=O)c1cccc(Nc2nccc(-c3sc(N4CCOCC4)nc3-c3cccc(NS(=O)(=O)c4c(F)cccc4F)c3)n2)c1 |
| 20.3% | 11.1% | -0.19% | 15.1% | 2.55% | 11% | 5.53% | 59.3% | 0.14% | 11.4% | COCCNC(=O)c1ccc2c(c1)nc(-c1cnc(-c3ccc(Cl)cc3)[nH]1)n2CCOC |
| 97.7% | 99.5% | 1.8% | 15.4% | 14.2% | 29.7% | 6.66% | 90.1% | 57.3% | 20.1% | CC(C)(C)c1cc(NC(=O)Nc2ccc(Oc3ccncc3)cc2)no1 |
